# Experimental data reported in US9902696B2, “1,4-substituted piperidine derivatives” (Cephalon, Inc., priority 2015, dated 2018).
# Where a name gives a salt, the structure may show the parent alone.
# Target: T1, recombinant human baculovirus-expressed GST-tagged FASN (Homo sapiens, UniProt P49327)
# T1 construct: GST
# Assay: FASN enzyme activity assay, fluorescence-based detection of CoA with CPM
# Type: biochemical
# Conditions: 5 nM FASN, 150 μM NADPH, 10 μM acetyl-CoA, 25 μM malonyl-CoA, 90 minutes incubation; read-out: IC50 data for Compounds of Formulae I-V/V(a): Activity
# How it was run: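 CoA product reacted with thiol-reactive CPM (diluted to 50 μM in 70% ethanol), read at 390/530 nm after 30 min. Preceding reaction: 90 min, 5 nM recombinant GST-FASN, 150 μM NADPH, 10 μM acetyl-CoA, 25 μM malonyl-CoA, pH 7.5 HEPES, 0.5% DMSO. IC50s fitted by nonlinear sigmoidal regression.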
# T1 sequence (P49327 whole entry): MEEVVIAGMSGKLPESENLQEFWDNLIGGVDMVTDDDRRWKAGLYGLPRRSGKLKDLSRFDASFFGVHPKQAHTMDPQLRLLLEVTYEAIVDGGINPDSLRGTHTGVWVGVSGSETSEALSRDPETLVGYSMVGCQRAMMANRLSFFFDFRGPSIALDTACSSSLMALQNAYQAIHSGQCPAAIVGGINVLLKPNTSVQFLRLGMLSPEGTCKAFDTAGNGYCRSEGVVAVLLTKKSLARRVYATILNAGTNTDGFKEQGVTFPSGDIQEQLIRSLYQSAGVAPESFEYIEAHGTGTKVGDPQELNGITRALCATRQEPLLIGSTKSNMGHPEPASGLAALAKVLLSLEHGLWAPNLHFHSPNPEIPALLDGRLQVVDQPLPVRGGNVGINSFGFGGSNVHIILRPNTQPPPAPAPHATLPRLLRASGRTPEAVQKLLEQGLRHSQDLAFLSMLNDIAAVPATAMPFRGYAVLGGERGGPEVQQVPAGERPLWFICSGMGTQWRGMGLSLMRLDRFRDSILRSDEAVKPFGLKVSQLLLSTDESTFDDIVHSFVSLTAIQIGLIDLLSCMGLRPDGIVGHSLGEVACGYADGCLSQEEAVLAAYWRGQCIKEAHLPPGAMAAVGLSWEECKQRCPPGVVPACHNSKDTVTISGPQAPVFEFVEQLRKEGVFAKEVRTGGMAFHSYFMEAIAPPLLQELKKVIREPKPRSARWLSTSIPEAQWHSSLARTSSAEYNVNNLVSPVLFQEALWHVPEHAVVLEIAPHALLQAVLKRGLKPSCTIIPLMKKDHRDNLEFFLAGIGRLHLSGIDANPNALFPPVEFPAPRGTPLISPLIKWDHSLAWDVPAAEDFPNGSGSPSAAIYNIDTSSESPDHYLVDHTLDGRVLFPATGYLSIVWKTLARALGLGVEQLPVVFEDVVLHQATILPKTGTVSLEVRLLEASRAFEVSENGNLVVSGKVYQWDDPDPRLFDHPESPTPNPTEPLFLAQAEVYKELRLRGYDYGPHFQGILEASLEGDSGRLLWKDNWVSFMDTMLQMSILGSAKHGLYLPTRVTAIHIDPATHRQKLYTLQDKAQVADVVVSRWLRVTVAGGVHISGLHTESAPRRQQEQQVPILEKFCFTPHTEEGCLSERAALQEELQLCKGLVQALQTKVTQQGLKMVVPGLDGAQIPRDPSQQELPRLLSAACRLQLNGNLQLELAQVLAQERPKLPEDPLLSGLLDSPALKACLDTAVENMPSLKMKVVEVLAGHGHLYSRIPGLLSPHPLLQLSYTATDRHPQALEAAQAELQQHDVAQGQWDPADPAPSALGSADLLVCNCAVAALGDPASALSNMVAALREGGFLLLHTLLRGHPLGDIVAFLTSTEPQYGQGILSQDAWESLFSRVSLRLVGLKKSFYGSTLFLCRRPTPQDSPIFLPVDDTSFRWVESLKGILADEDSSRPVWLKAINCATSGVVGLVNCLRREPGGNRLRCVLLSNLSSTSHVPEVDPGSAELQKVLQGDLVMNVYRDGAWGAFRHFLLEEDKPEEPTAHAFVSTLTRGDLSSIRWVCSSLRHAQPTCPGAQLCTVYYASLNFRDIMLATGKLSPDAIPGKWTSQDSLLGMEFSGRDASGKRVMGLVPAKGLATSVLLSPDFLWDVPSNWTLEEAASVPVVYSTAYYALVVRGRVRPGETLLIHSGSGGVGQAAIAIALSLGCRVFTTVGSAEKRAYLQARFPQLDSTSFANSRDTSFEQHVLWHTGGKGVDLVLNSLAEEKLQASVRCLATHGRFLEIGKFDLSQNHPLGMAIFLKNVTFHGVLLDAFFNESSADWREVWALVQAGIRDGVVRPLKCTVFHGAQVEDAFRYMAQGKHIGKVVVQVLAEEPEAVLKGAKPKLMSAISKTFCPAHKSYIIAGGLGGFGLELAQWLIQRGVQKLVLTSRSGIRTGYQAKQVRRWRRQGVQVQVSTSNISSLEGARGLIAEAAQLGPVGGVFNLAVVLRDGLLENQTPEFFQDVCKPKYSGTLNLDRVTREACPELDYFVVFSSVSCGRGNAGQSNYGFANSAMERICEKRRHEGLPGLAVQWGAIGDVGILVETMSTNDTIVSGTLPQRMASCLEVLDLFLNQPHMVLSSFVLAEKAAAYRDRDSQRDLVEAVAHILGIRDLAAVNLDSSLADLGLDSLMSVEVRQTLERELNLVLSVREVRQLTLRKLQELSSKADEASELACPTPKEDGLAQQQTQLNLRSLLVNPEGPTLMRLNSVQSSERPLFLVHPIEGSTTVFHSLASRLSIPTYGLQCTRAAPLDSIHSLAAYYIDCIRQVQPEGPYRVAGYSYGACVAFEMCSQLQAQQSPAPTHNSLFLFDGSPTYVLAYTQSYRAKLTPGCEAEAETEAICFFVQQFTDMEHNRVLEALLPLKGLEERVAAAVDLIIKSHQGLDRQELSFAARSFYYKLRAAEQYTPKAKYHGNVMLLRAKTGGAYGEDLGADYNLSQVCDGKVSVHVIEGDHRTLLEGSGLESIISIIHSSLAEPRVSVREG
row,SMILES,IC50 [µM]
1,"CC(C)C(=O)N1CCC(Oc2ccc(-c3ccc4cccnc4c3)cn2)CC1 [Example 136, 2-Methyl-1-[4-(5-quinolin-7-yl-pyridin-2-yloxy)-piperidin-1-yl]-propan-1-one, HCl]",1 to 10
2,"O=C(C1CC1)N1CCC(Oc2ccc(-c3ccc4cccnc4c3)cn2)CC1 [Example 137, Cyclopropyl-[4-(5-quinolin-7-yl-pyridin-2-yloxy)-piperidin-1-yl]-methanone, HCl]",0.1 to 0.999
3,"CC(C)C(=O)N1CCC(Oc2ncc(-c3cnc4ccccc4c3)cn2)CC1 [Example 138, 2-Methyl-1-[4-(5-quinolin-3-yl-pyrimidin-2-yloxy)-piperidin-1-yl]-propan-1-one, 2HCl]",1 to 10
4,"O=C(C1CC1)N1CCC(Oc2ncc(-c3cnc4ccccc4c3)cn2)CC1 [Example 139, Cyclopropyl-[4-(5-quinolin-3-yl-pyrimidin-2-yloxy)-piperidin-1-yl]-methanone, 2HCl]",1 to 10
5,"CCC(=O)N1CCC(Oc2ccc(-c3cnc4ccccc4c3)nc2)CC1 [Example 140, 1-[4-(6-Quinolin-3-yl-pyridin-3-yloxy)-piperidin-1-yl]-propan-1-one, 2HCl]",1 to 10
6,"CC(C)C(=O)N1CCC(Oc2ccc(-c3cnc4ccccc4c3)nc2)CC1 [Example 141, 2-Methyl-1-[4-(6-quinolin-3-yl-pyridin-3-yloxy)-piperidin-1-yl]-propan-1-one, 2HCl]",1 to 10
7,"O=C(C1CC1)N1CCC(Oc2ccc(-c3cnc4ccccc4c3)nc2)CC1 [Example 142, Cyclopropyl-[4-(6-quinolin-3-yl-pyridin-3-yloxy)-piperidin-1-yl]-methanone, 2HCl]",1 to 10
8,"CCC(=O)N1CCC(Oc2ccc(-c3ccc4cccnc4c3)nc2)CC1 [Example 144, 1-[4-(6-Quinolin-7-yl-pyridin-3-yloxy)-piperidin-1-yl]-propan-1-one, 2HCl]",1 to 10
9,"CC(C)C(=O)N1CCC(Oc2ccc(-c3ccc4cccnc4c3)nc2)CC1 [Example 145, 2-Methyl-1-[4-(6-quinolin-7-yl-pyridin-3-yloxy)-piperidin-1-yl]-propan-1-one, 2HCl]",1 to 10
10,"O=C(C1CC1)N1CCC(Oc2ccc(-c3ccc4cccnc4c3)nc2)CC1 [Example 146, Cyclopropyl-[4-(6-quinolin-7-yl-pyridin-3-yloxy)-piperidin-1-yl]-methanone, 2HCl]",1 to 10
11,"CCC(=O)N1CCC(Oc2ccc(-c3ccc4cnccc4c3)nc2)CC1 [Example 147, 1-[4-(6-Isoquinolin-6-yl-pyridin-3-yloxy)-piperidin-1-yl]-propan-1-one, 2HCl]",1 to 10
12,"CC(C)C(=O)N1CCC(Oc2ccc(-c3ccc4cnccc4c3)nc2)CC1 [Example 148, 1-[4-(6-Isoquinolin-6-yl-pyridin-3-yloxy)-piperidin-1-yl]-2-methyl-propan-1-one, 2HCl]",1 to 10
13,"O=C(C1CC1)N1CCC(Oc2ccc(-c3ccc4cnccc4c3)nc2)CC1 [Example 149, Cyclopropyl-[4-(6-isoquinolin-6-yl-pyridin-3-yloxy)-piperidin-1-yl]-methanone, 2HCl]",1 to 10
14,"CCC(=O)N1CCC(C(=O)N(C)c2ccc(-c3ccc4cccnc4c3)cc2)CC1 [Example 150, 1-Propionyl-piperidine-4-carboxylic acid methyl-(4-quinolin-7-yl-phenyl)-amide]",0.1 to 0.999
15,"CCC(=O)N1CCC(C(=O)N(C)c2ccc(-c3ccc4cnccc4c3)cc2)CC1 [Example 151, 1-Propionyl-piperidine-4-carboxylic acid (4-isoquinolin-6-yl-phenyl)-methylamide]",0.1 to 0.999
16,"O=C(C1OCCO1)N1CCC(Oc2ccc(-c3cnc4ccccc4c3)cc2)CC1 [Example 152, HCl]",0.001 to 0.099

# More lines, now with the values ahead:
row,IC50 [µM],SMILES
1,1 to 10,"O=CN1CCC(Oc2ccc(-c3cnc4ccccc4c3)cc2)CC1 [Example 153, 4-(4-Quinolin-3-yl-phenoxy)-piperidine-1-carbaldehyde, HCl]"
2,0.1 to 0.999,"C[C@@H]1C[C@H](C(=O)N2CCC(Oc3ccc(-c4cnc5ccccc5c4)cc3)CC2)O[C@@H]1C [Example 156, ((2R,4R,5R)/(2S,4S,5 S)-4,5-Dimethyl-tetrahydrofuran-2-yl)-[4-(4-quinolin-3-yl-phenoxy)-piperidin-1-yl]-methanone, HCL]"
3,1 to 10,"CCC(=O)N1CCC(N(C)C(=O)c2ccc(-c3ccc4cnccc4c3)cc2F)CC1 [Example 158, 2-Fluoro-4-isoquinolin-6-yl-N-methyl-N-(1-propionyl-piperidin-4-yl)-benzamide]"
4,1 to 10,"CCC(=O)N1CCC(Oc2ccc(-c3ccc4nnc(C(F)(F)F)n4c3)cc2)CC1 [Example 159, 1-{4-[4-(3-Trifluoromethyl-1,2,4-triazolo[4,3-a]pyridin-6-yl)-phenoxy]-piperidin-1-yl}-propan-1-one, HCl]"
5,1 to 10,"O=C(C1CC1)N1CCC(Oc2ccc(-c3ccc4nnc(C(F)(F)F)n4c3)cc2)CC1 [Example 160, Cyclopropyl-{4-[4-(3-trifluoromethyl-1,2,4-triazolo[4,3-a]pyridin-6-yl)-phenoxy]-piperidin-1-yl}-methanone, HCl]"
6,1 to 10,"O=C([C@H]1CCCO1)N1CCC(Oc2ccc(-c3ccc4nnc(C(F)(F)F)n4c3)cc2)CC1 [Example 161, (R)-Tetrahydrofuran-2-yl-{4-[4-(3-trifluoromethyl-1,2,4-triazolo[4,3-a]pyridin-6-yl)-phenoxy]-piperidin-1-yl}-methanone]"
7,1 to 10,"CS(=O)(=O)N1CCC(Oc2ccc(-c3cnc4ccccc4c3)cc2)CC1 [Example 162, 3-[4-(1-Methanesulfonyl-piperidin-4-yloxy)-phenyl]-quinoline]"
8,0.1 to 0.999,"O=C(C1CC(F)(F)CO1)N1CCC(Oc2ccc(-c3cnc4ccccc4c3)cc2)CC1 (stereo not shown) [Example 163, (4,4-Difluorotetrahydrofuran-2-yl)-[4-(4-quinolin-3-yl-phenoxy)-piperidin-1-yl]-methanone, HCl]"
9,0.1 to 0.999,Cc1c(-c2ccc(OC3CCN(C(=O)C4CC(F)(F)CO4)CC3)cc2)ccc2cccnc12 (stereo not shown) [Example 164]
10,0.1 to 0.999,Cc1nccc2cc(-c3ccc(OC4CCN(C(=O)C5CC(F)(F)CO5)CC4)cc3)ccc12 (stereo not shown) [Example 165]
11,1 to 10,"O=C1COC(C(=O)N2CCC(Oc3ccc(-c4cnc5ccccc5c4)cc3)CC2)C1 (stereo not shown) [Example 166, 5-[4-(4-Quinolin-3-yl-phenoxy)-piperidine-1-carbonyl]dihydrofuran-3-one]"
12,0.001 to 0.099,"CCOc1c(-c2ccc(OC3CCN(C(=O)CC)CC3)cc2)ccc2cccnc12 [Example 167, 1-{4-[4-(8-Ethoxyquinolin-7-yl)-phenoxy]-piperidin-1-yl}-propan-1-one, HCl]"
13,0.1 to 0.999,"CCOc1c(-c2ccc(OC3CCN(C(=O)C4CC4)CC3)cc2)ccc2cccnc12 [Example 168, Cyclopropyl-{4-[4-(8-ethoxyquinolin-7-yl)-phenoxy]-piperidin-1-yl}-methanone, HCl]"
14,0.1 to 0.999,"CCC(=O)N1CCC(Oc2ccc(-c3ccc4cccnc4c3OC(C)C)cc2)CC1 [Example 169, 1-{4-[4-(8-Isopropoxyquinolin-7-yl)-phenoxy]-piperidin-1-yl}-propan-1-one, HCl]"
15,0.1 to 0.999,"CC(C)Oc1c(-c2ccc(OC3CCN(C(=O)C4CC4)CC3)cc2)ccc2cccnc12 [Example 170, Cyclopropyl-{4-[4-(8-isopropoxyquinolin-7-yl)-phenoxy]-piperidin-1-yl}-methanone, HCl]"
16,1 to 10,"CCC(=O)N1CCC(Oc2ccc(-c3ccc4cccnc4c3OCCN3CCOCC3)cc2)CC1 [Example 171, 1-(4-{4-[8-(2-Morpholin-4-yl-ethoxy)-quinolin-7-yl]-phenoxy}-piperidin-1-yl)-propan-1-one, 2HCl]"
17,1 to 10,"O=C(C1CC1)N1CCC(Oc2ccc(-c3ccc4cccnc4c3OCCN3CCOCC3)cc2)CC1 [Example 172, Cyclopropyl-(4-{4-[8-(2-morpholin-4-yl-ethoxy)-quinolin-7-yl]-phenoxyl}-piperidin-1-yl)-methanone, 2HCl]"
18,1 to 10,"CCC(=O)N1CCC(Oc2ccc(-c3ccc4cccnc4c3OCCN3CCCC3)cc2)CC1 [Example 173, 1-(4-{4-[8-(2-Pyrrolidin-1-yl-ethoxy)-quinolin-7-yl]-phenoxy}-piperidin-1-yl)-propan-1-one, HCl]"
19,1 to 10,"O=C(C1CC1)N1CCC(Oc2ccc(-c3ccc4cccnc4c3OCCN3CCCC3)cc2)CC1 [Example 174, Cyclopropyl-(4-{4-[8-(2-pyrrolidin-1-yl-ethoxy)-quinolin-7-yl]-phenoxy}-piperidin-1-yl)-methanone, HCl]"
20,1 to 10,"CCC(=O)N1CCC(Oc2ccc(-c3ccc4cccnc4c3OCCCN3CCCC3)cc2)CC1 [Example 175, 1-(4-{4-[8-(3-Pyrrolidin-1-yl-propoxy)-quinolin-7-yl]-phenoxy}-piperidin-1-yl)-propan-1-one, HCl]"
21,1 to 10,"O=C(C1CC1)N1CCC(Oc2ccc(-c3ccc4cccnc4c3OCCCN3CCCC3)cc2)CC1 [Example 176, Cyclopropyl-(4-{4-[8-(3-pyrrolidin-1-yl-propoxy)-quinolin-7-yl]-phenoxy}-piperidin-1-yl)-methanone, HCl]"
22,1 to 10,"CCC(=O)N1CCC(Oc2ccc(-c3ccc4cccnc4c3OCCN3CCN(C)CC3)cc2)CC1 [Example 177, 1-[4-[4-[8-[2-(4-Methylpiperazin-1-yl)ethoxy]-7-quinolyl]phenoxy]-1-piperidyl]propan-1-one, HCl]"
23,0.1 to 0.999,"CCC(=O)N1CCC(Oc2ccc(-c3ccc4cccnc4c3OCCOC)cc2)CC1 [Example 178, 1-[4-[4-[8-(2-Methoxyethoxy)-7-quinolyl]phenoxy]-1-piperidyl]propan-1-one, HCl]"
24,0.1 to 0.999,"CCC(=O)N1CCC(Oc2ccc(-c3ccc4cccnc4c3OCCCOC)cc2)CC1 [Example 179, 1-[4-[4-[8-(3-Methoxypropoxy)-7-quinolyl]phenoxy]-1-piperidyl]propan-1-one, HCl]"
